Test results as given in patent US20250376468A1, “PYRAZOLO[1,5-a]PYRIDINE DERIVATIVES FOR TREATING TRPM3-MEDIATED DISORDERS” (Katholieke Universiteit Leuven, priority 2022, published 2025).

Each compound was assayed against T1, mouse TRPM3α2 (mTRPM3) ion channel (Mus musculus, UniProt J9SQF3) (assay: TRPM3 ion channel driven Ca2+ uptake, Fluo-4 AM assay, stimulated with pregnenolone sulfate (50 μM)). Settings: TRPM3 overexpressing flip-in HEK293 cells, PS 50 μM, 2.4 mM Ca2+.
T1 construct: expressed in transfected cells; host or cells: flip-in HEK293 (Flp-In HEK293) overexpressing mTRPM3alpha2
T1 sequence (J9SQF3 1-1709 isoform J9SQF3-12): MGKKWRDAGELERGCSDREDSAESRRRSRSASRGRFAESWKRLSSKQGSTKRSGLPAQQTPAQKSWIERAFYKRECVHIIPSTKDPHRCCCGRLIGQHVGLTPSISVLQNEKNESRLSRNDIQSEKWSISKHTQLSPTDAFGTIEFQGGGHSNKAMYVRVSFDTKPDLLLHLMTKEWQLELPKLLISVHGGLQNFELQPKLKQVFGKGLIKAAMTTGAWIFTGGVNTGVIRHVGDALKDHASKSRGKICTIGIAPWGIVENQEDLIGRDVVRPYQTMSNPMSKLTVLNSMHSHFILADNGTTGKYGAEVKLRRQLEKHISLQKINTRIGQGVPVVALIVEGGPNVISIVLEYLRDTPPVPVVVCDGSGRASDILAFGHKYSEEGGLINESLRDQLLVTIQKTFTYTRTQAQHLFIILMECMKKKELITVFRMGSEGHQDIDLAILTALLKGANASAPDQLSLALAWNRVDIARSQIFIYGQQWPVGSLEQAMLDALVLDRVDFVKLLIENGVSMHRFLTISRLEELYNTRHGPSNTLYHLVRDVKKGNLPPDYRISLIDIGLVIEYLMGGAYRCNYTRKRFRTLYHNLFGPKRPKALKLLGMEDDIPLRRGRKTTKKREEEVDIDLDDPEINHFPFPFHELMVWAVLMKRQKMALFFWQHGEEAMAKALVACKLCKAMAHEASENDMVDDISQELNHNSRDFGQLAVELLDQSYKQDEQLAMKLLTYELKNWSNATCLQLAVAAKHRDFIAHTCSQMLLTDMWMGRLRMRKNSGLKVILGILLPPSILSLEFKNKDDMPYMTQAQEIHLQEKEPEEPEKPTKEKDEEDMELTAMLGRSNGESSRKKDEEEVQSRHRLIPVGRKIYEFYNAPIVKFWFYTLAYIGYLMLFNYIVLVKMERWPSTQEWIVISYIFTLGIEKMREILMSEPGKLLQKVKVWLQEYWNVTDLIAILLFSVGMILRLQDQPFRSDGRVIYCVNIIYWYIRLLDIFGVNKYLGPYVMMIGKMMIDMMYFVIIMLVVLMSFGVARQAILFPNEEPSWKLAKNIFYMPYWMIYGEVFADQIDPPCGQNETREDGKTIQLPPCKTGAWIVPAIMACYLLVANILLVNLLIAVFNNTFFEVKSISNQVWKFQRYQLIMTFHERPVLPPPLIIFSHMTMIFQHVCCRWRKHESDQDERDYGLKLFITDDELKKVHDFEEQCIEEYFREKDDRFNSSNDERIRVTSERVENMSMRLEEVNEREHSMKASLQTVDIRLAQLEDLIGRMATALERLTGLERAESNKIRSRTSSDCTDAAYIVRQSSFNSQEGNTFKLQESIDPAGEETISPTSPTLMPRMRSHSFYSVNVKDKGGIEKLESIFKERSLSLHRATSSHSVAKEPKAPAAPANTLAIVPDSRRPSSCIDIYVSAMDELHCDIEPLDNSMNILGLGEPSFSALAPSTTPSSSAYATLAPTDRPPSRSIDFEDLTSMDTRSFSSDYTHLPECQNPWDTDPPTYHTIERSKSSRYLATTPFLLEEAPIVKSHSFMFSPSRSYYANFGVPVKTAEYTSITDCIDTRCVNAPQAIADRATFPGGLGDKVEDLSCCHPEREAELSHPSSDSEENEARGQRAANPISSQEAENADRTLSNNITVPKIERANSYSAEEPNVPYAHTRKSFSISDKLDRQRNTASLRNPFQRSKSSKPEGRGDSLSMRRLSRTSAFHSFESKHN
Type: cell-based
Experimental: In order to monitor the inhibition of the mouse TRPM3α2 (mTRPM3) ion channel by the compounds of the invention, a cellular system making use of an mTRPM3alpha2 or hTRPM3 overexpressing cell line (flip-in HEK293) was used. The TRPM3 channel was stimulated/opened with Pregnenolone sulfate (PS) (50 μM) which results in Ca^2+ influx.
For mTRPM3, the intracellular Ca^2+ was measured with a Calcium responsive dye, Fluor-4 AM ester (Invitrogen). Cells were cultured until a confluence of 80-90%, washed with Versene (Invitrogen) and detached from the surface by a short incubation with 0.05% Trypsin (Invitrogen). The […] was stopped by the addition of complete cell culture medium (DMEM, glutamax, 10% FCS, NEAA, Pen-Strep). Cells were collected and resuspended in Krebs buffer without Calcium at RT.
Prior the cell seeding (±2000 cells/well into a black, 384 well plate (Greiner)) the diluted compound was added in the assay plate, together with the PS dissolved in Krebs buffer containing Calcium. […] Directly after cell addition the plates were read on an Envision fluorescence reader (Perkin Elmer) by an Excitation of 485 nm and emission at 535 nm.
Channel inhibition was calculated compared to a non-PS stimulated control versus a condition stimulated with PS (50 μM) with vehicle. The ability of the compounds of the invention to inhibit this activity was determined as: Percentage inhibition=[1−((RFU determined for sample with test compound present−RFU determined for sample with positive control inhibitor) divided by (RFU determined in the presence of vehicle−RFU determined for sample with positive control inhibitor))]*100.
The activities of the Example compounds cpd 001-091 tested are depicted in the table below. All tested compounds show an activity in the Fluo-4 AM assay. The activity ranges A, B and C refer to IC50 values in the Fluo-4 AM assay as follows: “A”: IC50<1 μM; “B”: 1 μM≤IC50≤20 μM and “C”: IC50>20 μM.
Cc1nn2ccc(OCc3ccccn3)cc2c1C(=O)N[C@@]1(CO)C[C@H]1C(F)F (relative stereo) [Cpd 072 - En1, N-[cis-2-(difluoromethyl)-1-(hydroxymethyl)cyclopropyl]-2-methyl-5-[(pyridin-2-yl)methoxy]pyrazolo[1,5-a]pyridine-3-carboxamide] gave an IC50 of 1 to 20 µM. Work on Cc1nn2ccc(OCc3ccccn3)cc2c1C(=O)N[C@@]1(CO)C[C@H]1C(F)F (relative stereo) [Cpd 072 - En2, N-[cis-2-(difluoromethyl)-1-(hydroxymethyl)cyclopropyl]-2-methyl-5-[(pyridin-2-yl)methoxy]pyrazolo[1,5-a]pyridine-3-carboxamide] yielded an IC50 of over 20 µM. Work on CNC(=O)C(C)(CO)NC(=O)c1c(C)nn2ccc(OCc3ccccc3F)cc12 (single isomer, unassigned) [Cpd 011 - En1, 2-({5-[(2-fluorophenyl)methoxy]-2-methylpyrazolo[1,5-a]pyridin-3-yl}formamido)-3-hydroxy-N,2-dimethylpropanamide] yielded an IC50 of under 1 µM. CNC(=O)C(C)(CO)NC(=O)c1c(C)nn2ccc(OCc3ccccc3F)cc12 (single isomer, unassigned) [Cpd 011 - En2, 2-({5-[(2-fluorophenyl)methoxy]-2-methylpyrazolo[1,5-a]pyridin-3-yl}formamido)-3-hydroxy-N,2-dimethylpropanamide] showed an IC50 of 1 to 20 µM. Cc1nn2ccc(OCc3ccccc3F)cc2c1C(=O)NC1(CO)CCNC1=O (single isomer, unassigned) [Cpd 018 - En1, 5-[(2-fluorophenyl)methoxy]-N-[3-(hydroxymethyl)-2-oxopyrrolidin-3-yl]-2-methylpyrazolo[1,5-a]pyridine-3-carboxamide] showed an IC50 of 1 to 20 µM. With Cc1nn2ccc(OCc3ccccc3F)cc2c1C(=O)NC1(CO)CCNC1=O (single isomer, unassigned) [Cpd 018 - En2, 5-[(2-fluorophenyl)methoxy]-N-[3-(hydroxymethyl)-2-oxopyrrolidin-3-yl]-2-methylpyrazolo[1,5-a]pyridine-3-carboxamide] the IC50 was under 1 µM. Work on Cc1nn2ccc(OCc3ccccc3Cl)cc2c1C(=O)NC(C)(CO)C(N)=O (single isomer, unassigned) [Cpd 019 - En1, 2-({5-[(2-chlorophenyl)methoxy]-2-methylpyrazolo[1,5-a]pyridin-3-yl}formamido)-3-hydroxy-2-methylpropanamide] yielded an IC50 of under 1 µM. Cc1nn2ccc(OCc3ccccc3Cl)cc2c1C(=O)NC(C)(CO)C(N)=O (single isomer, unassigned) [Cpd 019 - En2, 2-({5-[(2-chlorophenyl)methoxy]-2-methylpyrazolo[1,5-a]pyridin-3-yl}formamido)-3-hydroxy-2-methylpropanamide] showed an IC50 of 1 to 20 µM. Cc1nn2ccc(OCc3ccccc3F)cc2c1C(=O)NC(C)(CO)C(N)=O (single isomer, unassigned) [Cpd 020 - En1, 2-({5-[(2-fluorophenyl)methoxy]-2-methylpyrazolo[1,5-a]pyridin-3-yl}formamido)-3-hydroxy-2-methylpropanamide] gave an IC50 of under 1 µM. Cc1nn2ccc(OCc3ccccc3F)cc2c1C(=O)NC(C)(CO)C(N)=O (single isomer, unassigned) [Cpd 020 - En2, 2-({5-[(2-fluorophenyl)methoxy]-2-methylpyrazolo[1,5-a]pyridin-3-yl}formamido)-3-hydroxy-2-methylpropanamide] was tested, and the IC50 was 1 to 20 µM. With Cc1nn2ccc(OCc3ccccc3F)cc2c1C(=O)N(C)C(C)(CO)C(N)=O (single isomer, unassigned) [Cpd 024 - En1, 2-(1-{5-[(2-fluorophenyl)methoxy]-2-methylpyrazolo[1,5-a]pyridin-3-yl}-N-methylformamido)-3-hydroxy-2-methylpropanamide] the IC50 was 1 to 20 µM. Cc1nn2ccc(OCc3ccccc3F)cc2c1C(=O)N(C)C(C)(CO)C(N)=O (single isomer, unassigned) [Cpd 024 - En2, 2-(1-{5-[(2-fluorophenyl)methoxy]-2-methylpyrazolo[1,5-a]pyridin-3-yl}-N-methylformamido)-3-hydroxy-2-methylpropanamide] was tested, and the IC50 was 1 to 20 µM. In the case of Cc1nn2ccc(OCc3ccccn3)cc2c1C(=O)NC(C)(CO)CC(F)F (single isomer, unassigned) [Cpd 038 - En1, N-(4,4-difluoro-1-hydroxy-2-methylbutan-2-yl)-2-methyl-5-[(pyridin-2-yl)methoxy]pyrazolo[1,5-a]pyridine-3-carboxamide], the IC50 is reported as 1 to 20 µM. Work on Cc1nn2ccc(OCc3ccccn3)cc2c1C(=O)NC(C)(CO)CC(F)F (single isomer, unassigned) [Cpd 038 - En2, N-(4,4-difluoro-1-hydroxy-2-methylbutan-2-yl)-2-methyl-5-[(pyridin-2-yl)methoxy]pyrazolo[1,5-a]pyridine-3-carboxamide] yielded an IC50 of under 1 µM. For Cc1nn2ccc(OCc3ccccn3)cc2c1C(=O)NC1CNCCC1(F)F (single isomer, unassigned) [Cpd 050 - En1, N-(4,4-difluoropiperidin-3-yl)-2-methyl-5-[(pyridin-2-yl)methoxy]pyrazolo[1,5-a]pyridine-3-carboxamide], the IC50 was over 20 µM. Cc1nn2ccc(OCc3ccccn3)cc2c1C(=O)NC1CNCCC1(F)F (single isomer, unassigned) [Cpd 050 - En2, N-(4,4-difluoropiperidin-3-yl)-2-methyl-5-[(pyridin-2-yl)methoxy]pyrazolo[1,5-a]pyridine-3-carboxamide] showed an IC50 of 1 to 20 µM. Cc1nn2ccc(OCc3ccccn3)cc2c1C(=O)NC1CNCC(F)(F)C1 (single isomer, unassigned) [Cpd 052 - En1, N-(5,5-difluoropiperidin-3-yl)-2-methyl-5-[(pyridin-2-yl)methoxy]pyrazolo[1,5-a]pyridine-3-carboxamide] gave an IC50 of 1 to 20 µM. Cc1nn2ccc(OCc3ccccn3)cc2c1C(=O)NC1CNCC(F)(F)C1 (single isomer, unassigned) [Cpd 052 - En2, N-(5,5-difluoropiperidin-3-yl)-2-methyl-5-[(pyridin-2-yl)methoxy]pyrazolo[1,5-a]pyridine-3-carboxamide] gave an IC50 of over 20 µM. Compound Cc1nn2ccc(OCc3ccccn3)cc2c1C(=O)NC(C)(CO)C(N)=O (single isomer, unassigned) [Cpd 089 - En1, 3-hydroxy-2-methyl-2-({2-methyl-5-[(pyridin-2-yl)methoxy]pyrazolo[1,5-a]pyridin-3-yl}formamido)propanamide] has an IC50 of over 20 µM. For Cc1nn2ccc(OCc3ccccn3)cc2c1C(=O)NC(C)(CO)C(N)=O (single isomer, unassigned) [Cpd 089 - En2, 3-hydroxy-2-methyl-2-({2-methyl-5-[(pyridin-2-yl)methoxy]pyrazolo[1,5-a]pyridin-3-yl}formamido)propanamide], the IC50 was under 1 µM. CCC(CO)(NC(=O)c1c(C)nn2ccc(OCc3ccccc3F)cc12)C(N)=O (stereo not shown) [Cpd 001, 2-({5-[(2-fluorophenyl)methoxy]-2-methylpyrazolo[1,5-a]pyridin-3-yl}formamido)-2-(hydroxymethyl)butanamide] was tested, and the IC50 was under 1 µM. Cc1nn2ccc(OCc3ccccc3F)cc2c1C(=O)NC(C)(CO)CO [Cpd 002, N-(1,3-dihydroxy-2-methylpropan-2-yl)-5-[(2-fluorophenyl)methoxy]-2-methylpyrazolo[1,5-a]pyridine-3-carboxamide] showed an IC50 of 1 to 20 µM. In the case of Cc1nn2ccc(OCc3ccccc3F)cc2c1C(=O)N[C@@H](CO)C(N)=O [Cpd 003, (2S)-2-({5-[(2-fluorophenyl)methoxy]-2-methylpyrazolo[1,5-a]pyridin-3-yl}formamido)-3-hydroxypropanamide], the IC50 is reported as under 1 µM. Cc1nn2ccc(OCc3ccccc3F)cc2c1C(=O)NC(C)(C)C(N)=O [Cpd 004, 2-({5-[(2-fluorophenyl)methoxy]-2-methylpyrazolo[1,5-a]pyridin-3-yl}formamido)-2-methylpropanamide] was tested, and the IC50 was 1 to 20 µM. Cc1nn2ccc(OCc3ccccc3F)cc2c1C(=O)NCCNS(C)(=O)=O [Cpd 005, 5-[(2-fluorophenyl)methoxy]-N-(2-methanesulfonamidoethyl)-2-methylpyrazolo[1,5-a]pyridine-3-carboxamide] was tested, and the IC50 was 1 to 20 µM. Compound Cc1nn2ccc(OCc3ccccc3F)cc2c1C(=O)NCC(F)F [Cpd 006, N-(2,2-difluoroethyl)-5-[(2-fluorophenyl)methoxy]-2-methylpyrazolo[1,5-a]pyridine-3-carboxamide] has an IC50 of 1 to 20 µM. Work on Cc1nn2ccc(OCc3ccccc3F)cc2c1C(=O)N[C@H](C(N)=O)[C@@H](C)O [Cpd 007, (2S,3R)-2-({5-[(2-fluorophenyl)methoxy]-2-methylpyrazolo[1,5-a]pyridin-3-yl}formamido)-3-hydroxybutanamide] yielded an IC50 of under 1 µM. Compound Cc1ncsc1COc1ccn2nc(C)c(C(=O)NC(C)(CO)CO)c2c1 [Cpd 008, N-(1,3-dihydroxy-2-methylpropan-2-yl)-2-methyl-5-[(4-methyl-1,3-thiazol-5-yl)methoxy]pyrazolo[1,5-a]pyridine-3-carboxamide] has an IC50 of 1 to 20 µM.
